{"source": "paper PMC9653733", "about": "“Characterization of a Potent, Selective, and Safe Inhibitor, Ac15(Az8)2, in Reversing Multidrug Resistance Mediated by Breast Cancer Resistance Protein (BCRP/ABCG2)” (International Journal of Molecular Sciences, 2022)", "key": {"BCRP (MCF7-MX100 cells)": {"tested_on": "BCRP (MCF7-MX100 cells)", "conditions": "concentration reducing IC50 of anticancer drug by half; mean ± S.D.; ref [42]; read-out: EC50 needed for reversing BCRP-mediated topotecan resistance, MCF7-MX100; cited from earlier work"}, "S1M180 xenograft": {"tested_on": "S1M180 xenograft", "source_text": "(A) S1 xenograft. (B) S1M180 xenograft. There were 3 treatment groups in S1 and S1M180 xenograft model. Treatments were given as indicated by an arrow (↑). % of tumor volume reduction was compared among different treatment groups on days 55 and 71. a, b, and c = mean tumor volume of solvent control, topotecan alone, and combination treatment groups on day 55, respectively. d and e = mean tumor volume of topotecan alone and combination treatment groups on day 71. (C) Tumor weight of S1M180-bearing mice on termination day. (D) % change of tumor volume and tumor doubling time of S1M180 xenograft were determined on days 55 and 71. […] Number of animal death was monitored during the efficacy study. (E) Body weight of S1M180-bearing mice. (F) To measure plasma and intratumor level of topotecan, S1M180-bearing mice were administered with 45 mg/kg (I.P.) of Ac15(Az8)2 one hour prior to 6 mg/kg (I.P.) of topotecan administration. Five hours after topotecan administration, the mice were sacrificed. Plasma and tumor were collected for analyzing topotecan level using UPLC–MS/MS. Student’s unpaired two-tailed t-test was performed between combination group and topotecan alone group or solvent control group as indicated (* p < 0.05, ** p < 0.01, *** p < 0.001).\nTen million of S1M180 cells were injected subcutaneously into Balb/c nu nu mice (Beijing Vital River Laboratory Animal Technology Co., Ltd., Beijing, China). Mice with solid tumors formed were sacrificed. The tumor was removed and cut into 1 mm^3 and xenografted subcutaneously onto another Balb/c nu nu mouse for passage or efficacy study. Treatment of nude mice started when the xenograft reached 100–150 mm^3. The mice were randomized into 3 groups (n = 7 mice per group). Group (1) was treated with Ac15(Az8)2 solvent (I.P.) and topotecan solvent (I.P.), group (2) was treated with Ac15(Az8)2 solvent (I.P.) and topotecan (2 mg/kg, I.P.), group (3) was treated with Ac15(Az8)2 (45 mg/kg, I.P.) and topotecan (2 mg/kg, I.P.). The formulation used was the same as that of the pharmacokinetic study. S1M180-bearing nude mice were treated for 4 rounds. In each round, they were treated once every two days 6 times, allowed to rest for 7 days, and treated again. […] The body weights of mice were monitored throughout the experiment. Tumor dimensions were measured by an electronic caliper, and the tumor volume was calculated as reported previously."}, "S1 cells": {"tested_on": "S1 cells", "experiment": "Cytotoxicity of anticancer drugs in parental S1 (0.1% DMSO)", "format": "cell-based, human"}, "S1M180 cells": {"tested_on": "S1M180 cells", "experiment": "Cytotoxicity of anticancer drugs in S1M180 (0.1% DMSO)", "format": "cell-based, human", "description": "In total, 6500 cells of S1M180 or MCF7-MX100 were incubated with various doses of topotecan or DOX and modulators. The final volume in each well of 96-well plates was 200 µL. The plates were then incubated for 5 days at 37 °C. The CellTiter 96 AQueous Assay (Promega) was used to measure cell proliferation. According to the manufacturer’s instructions, MTS (2 mg/mL) and PMS (0.92 mg/mL) were mixed in a ratio of 20:1. An aliquot (10 μL) of the freshly prepared MTS/PMS mixture was added into each well, and the plate was incubated for 2 h at 37 °C. Optical absorbance at 490 nm was then recorded with microplate absorbance reader (Bio-Rad). IC50 values were calculated from the dose-response curves of MTS assays (Prism 4.0)."}, "[1]": {"experiment": "Pharmacokinetics of topotecan in mice with or without Ac15(Az8)2", "format": "in vivo", "conditions": "female, Balb/c, mouse, plasma, ip, topotecan 2 mg/kg I.P.; for AUC(0-inf) / Cmax / half-life: 2 mg/kg; for half-life: read-out: Half-life (E-phase) of topotecan (converted)", "description": "Ac15(Az8)2 and topotecan in plasma were analyzed by UPLC–MS/MS. UPLC (Acquity Waters) and triple quadrupole mass analyzer (Quattro Ultima) with an electrospray ionization source in the positive mode were used to quantify Ac15(Az8)2 and topotecan. Acquity UPLC BEH C8 and C18 column (1.7 µm 2.1 × 50 mm) from Waters was used to separate Ac15(Az8)2 and topotecan, respectively. Mobile phases used for Ac15(Az8)2 analysis were water and acetonitrile. Ac15(Az8)2 and its internal standard Ac15(Az5)2 (Figure S2) were monitored at m/z 608 → m/z 149 and m/z 594 → […], respectively. Mobile phases used for topotecan analysis were water and methanol. Topotecan and its internal standard tetracycline were monitored at m/z 422 → m/z 377 and m/z 445 → m/z 410, respectively.\nFemale Balb/c mice at 4–6 weeks were used for the pharmacokinetic studies. Ac15(Az8)2 at 4 mg/mL was prepared in 10% NMP, 10% Cremophor-EL and 80% H2O. Topotecan was dissolved in H2O at 1 mg/mL, and 45 mg/kg Ac15(Az8)2 was administered through intraperitoneal (I.P.) injection. Blood was collected at 10, 30, 60, 70, 90, 120, 180, 240, 300, 480, 720 and 1440 min by cardiac puncture and stored in heparinized tubes for centrifugation at 16,000 g for 5 min. For topotecan pharmacokinetic study, 2 mg/kg topotecan was I.P. administered one hour after 45 mg/kg Ac15(Az8)2 or solvent injection. Blood was collected at 10, 30, 60, 120, 240 and 480 min post-topotecan administration. All animal studies were approved by the Animal Subjects Ethics Sub-committee of the Hong Kong Polytechnic University and performed in accordance with the Cap340 Animal License of the Department of Health in Hong Kong."}, "[2]": {"conditions": "45 mg/kg Ac15(Az8)2 + 2 mg/kg topotecan"}, "[3]": {"conditions": "45 mg/kg Ac15(Az8)2 I.P. one hour prior"}}, "note": "Several values for one entry are separate records, joined by “and”; a condition that tells them apart may be missing. Identical values can stand only once. Like-named read-outs stand apart in the source and are kept apart here."}
{"molecule": "COC(=O)c1cccc(COc2c(-c3ccc(OCCOCCn4cc(CN(Cc5ccccc5)Cc5cn(CCOCCOc6ccc(-c7oc8ccccc8c(=O)c7OCc7cccc(C(=O)OC)c7)cc6)nn5)nn4)cc3)oc3ccccc3c2=O)c1", "note": "[Ac15(Az8)2]", "values": [{"measurement": "EC50", "setting": "BCRP (MCF7-MX100 cells)", "value": "3 nM and 3.3 nM"}, {"measurement": "Lengthening of tumor doubling time by combination treatment vs solvent group", "setting": "S1M180 xenograft; [2]", "value": 4.6, "unit": "days"}, {"measurement": "Lengthening of tumor doubling time by combination treatment vs topotecan alone", "setting": "S1M180 xenograft; [2]", "value": 1.8, "unit": "days"}, {"measurement": "Reduction of tumor weight by combination treatment vs solvent group", "setting": "S1M180 xenograft; termination day, p < 0.001", "value": 1.9, "unit": "fold"}, {"measurement": "Reduction of tumor weight by combination treatment vs topotecan alone", "setting": "S1M180 xenograft; termination day, p < 0.01", "value": 1.6, "unit": "fold"}]}
{"molecule": "CC[C@@]1(O)C(=O)OCc2c1cc1n(c2=O)Cc2cc3c(CN(C)C)c(O)ccc3nc2-1", "note": "[topotecan]", "values": [{"measurement": "IC50", "setting": "S1 cells; Homo sapiens, S1 + 0.1% DMSO, mean ± S.D., n = 3, read-out: IC50 of topotecan", "value": "446 ± 20", "unit": "nM"}, {"measurement": "RF (Relative Fold), topotecan: resistance of S1M180 compared to parental S1", "setting": "S1 cells; S1 + 0.1% DMSO vs S1M180 + 0.1% DMSO", "value": 27.9}, {"measurement": "IC50", "setting": "S1M180 cells; Homo sapiens, S1-M1-80, S1M180 + 0.1% DMSO, mean ± S.D., n = 3, read-out: IC50 of topotecan", "value": 12400, "unit": "nM"}, {"measurement": "RF (Relative Fold), topotecan", "setting": "S1M180 cells; S1M180 + 0.1% DMSO (reference)", "value": 1.0}, {"measurement": "AUC(0-inf)", "setting": "[1]; [3]", "value": 8700, "unit": "ng·h/mL"}, {"measurement": "Cmax", "setting": "[1]; [3]", "value": 4400, "unit": "ng/mL"}, {"measurement": "half-life", "setting": "[1]; [3]", "value": 1.6, "unit": "h"}, {"measurement": "AUC(0-inf)", "setting": "[1]; Ac15(Az8)2 0 mg/kg (solvent)", "value": 4400, "unit": "ng·h/mL"}, {"measurement": "Cmax", "setting": "[1]; Ac15(Az8)2 0 mg/kg (solvent)", "value": 2900, "unit": "ng/mL"}, {"measurement": "half-life", "setting": "[1]; Ac15(Az8)2 0 mg/kg (solvent)", "value": 1.3, "unit": "h"}, {"measurement": "Tmax", "setting": "[1]; [3]", "value": 1, "unit": "h"}]}
